Experimental data from patent publication US4946860A, “Benzothiopyranyl derivatives as HMG-CoA reductase inhibitors” (Rorer Pharmaceutical Corporation, priority 1989, dated 1990).
pIC50: −log10 of the molar value.

Columns and labels:
HMGR enzyme = assay: HMGR Screen (solubilized rat liver microsomal HMG-CoA reductase, [14C] HMG-CoA); type: biochemical; conditions: 20 μM HMG-CoA, pH 7.0, 37° C.
Description: (§1) The utility of the claimed compounds is measured by the test methods described hereunder. […] 1976, Biochemistry.
The first method used (designated HMGR Screen) was as follows: Male rats were acclimated to an alternate 12 hour light-dark cycle for a period of 2-3 weeks. The animals, weighing 180-230g, were fed ad libitum a rat chow containing 2% cholestyramine for 5 days prior to sacrifice at the mid-dark period. Liver microsomes were prepared and HMGR enzyme was solubilized from the microsomes by freeze-thaw manipulation in high ionic strength buffer. The enzyme preparation was stored at -80° C. in 300 μl portion samples. Prior to use, the enzyme was activated at 37° C. for 30 minutes in a reaction mixture. The reaction mixture was contained in a volume of 240 μl1:0.14M potassium phosphate buffer (pH 7.0); 0.18M KCl; 3.5 mM EDTA; 10 mM dithiothreitol; 0.1 mg/ml BSA; 30,000 cpm of [^14 C] HMG-CoA; 20 μM HMG-CoA; and 200 μg of solubilized enzyme with and without inhibitors (in 10 μl DMSO). After 5 minutes incubation at 37° C. the reaction was initiated with 0.2 mM NADPH. The final assay volume was 300 μl. After 10 minutes the reaction mixture was terminated with 100 μl of 1N HCl. […] After the addition of 10 ml of Aquasol , radioactivities of the samples were measured in a scintillation counter.

cholesterol synthesis = assay: Ex-Vivo Non-Fasted (cholesterol synthesis from [14C] sodium acetate in liver slices of orally dosed fed rats); parameters: species or system rat; conditions: oral in 0.5% methocel, livers removed two hours after dosing, dose not given
Description: as §1
The second method used (designated Ex-Vivo Non-Fasted and Ex-Vivo Fasted) used was as follows: Rats of 170-210g were maintained on a low cholesterol diet for one week prior to use. Drugs were given orally in 0.5% methocel to both fed and fasted (fasted for 16 hours) rats. After one hour (fasted rats) and two hours (fed rats) the rats were decapitated and their livers removed and transferred to chilled oxygenated Kreb's-Ringer-bicarbonate buffer (pH 7.4). The livers were then chopped into 0.5 mm slices using a McIlwain tissue chopper, and were suspended in the same buffer. Aliquots of the suspension containing 100 mg tissue were pipetted to culture tubes which contained [^14 C] sodium acetate (2 μCi, 1 mM). The tubes were gassed with 95% O2 /5%CO2, capped and incubated at 37° C. in a shaking water bath at 150 oscillation/minute for two hours. The final assay volume was 1.0 ml. After incubation the reaction was stopped by the addition of 1.0 ml of 15% KOH in ethanol, and the internal standard ^3 H-cholesterol was added. The tubes were recapped and the samples were saponified at 75° C. for two hours with periodic mixing. […] After visualization with iodine the cholesterol spots were cut and counted with liquid scintillation fluid. […]

pIC50 (HMGR enzyme): 8.01
SMILES: CC1(C)Sc2ccccc2C(c2ccc(F)cc2)=C1/C=C/[C@@H]1C[C@@H](O)CC(=O)O1 (relative stereo) [Example 1G]
inhibited cholesterol synthesis (cholesterol synthesis): 43%
